# Source: PMC6739424, “Osh Proteins Control Nanoscale Lipid Organization Necessary for PI(4,5)P2 Synthesis” (Molecular Cell, 2019)
# Target: T1, zPIP5K (zebrafish PIP5K1A, zPIP5K1Aα) (Danio rerio, UniProt Q503I3)
# T1 construct: gene pip5k1aa; kinase domain aa 49-431, His-tagged (pET21b+), E. coli
# Assay: real-time liposome assay with NBD-PHPLCδ PI([…])P2 sensor
# Assay type: biochemical
# Details: ATP 80 uM, 2 mM MgCl2, pH 7.5; liposomes without PS or sterol; allosteric sigmoidal fit
# T1 sequence (Q503I3 49-431): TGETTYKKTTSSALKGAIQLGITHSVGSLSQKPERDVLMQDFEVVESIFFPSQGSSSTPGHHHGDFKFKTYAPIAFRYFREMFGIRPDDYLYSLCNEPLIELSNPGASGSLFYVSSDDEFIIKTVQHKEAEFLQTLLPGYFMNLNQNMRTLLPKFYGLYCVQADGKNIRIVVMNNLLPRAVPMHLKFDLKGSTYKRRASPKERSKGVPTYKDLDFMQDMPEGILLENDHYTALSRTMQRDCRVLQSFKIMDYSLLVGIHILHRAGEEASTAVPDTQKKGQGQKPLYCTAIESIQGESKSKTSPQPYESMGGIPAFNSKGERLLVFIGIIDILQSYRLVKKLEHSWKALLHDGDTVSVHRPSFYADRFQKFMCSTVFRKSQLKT
substance,measurement,value
L-α-phosphatidylinositol-4-phosphate [bPI4P],apparent Km,6.2 mol%
